Converted amounts (≈) assume the structure as drawn. Square brackets hold non-standard residues; d marks the D form. Peptide text beside a SMILES is read from it. Ac6c = NC1(C(=O)O)CCCCC1
Legend:
[1] = format: in vitro ADME, CD-1 mice
Method: Female CD-1 mice of 8 weeks were retroorbitally bled and 6 μg A3-APO peptide dissolved in 10 μL phosphate buffered saline (PBS) was immediately added to approximately 100 μL retrieved blood. After 30 min incubation at 37° C., the cells were removed by 10 min centrifugation at 2,000 rpm, 50 μL PBS was added to 50 μL of the plasma, followed by addition of 45 μL of 15% TCA. The rest of the analysis was done as described for the serum stability studies. Control blood was treated identically without A3-APO peptide addition. […] While the double charged ion at 2519 M/z from the serum studies could not be detected, the two serum components at 1798 and 2969 M/z and two new peaks at 2321 and 2577 M/z were present. These latter peptide species correspond to stable early degradation products.
Ex vivo blood stability studies were repeated on Chex1-Arg20 according to the protocol described above “Stability of Peptide A3-APO in Whole Blood”. […] The only degradation product that could be detected, at about one third of the peak height of the Chex1-Arg20 starting material, was at 2321 M/z, representing a fragment with the C-terminal arginine missing. Apparently this cleavage product is the Chex1-Val19 fragment observed for peptide A3-APO when the stability studies were done in blood ex vivo (see and compare with the lower panel of FIG. 2 and Table 1). […]

[2] = system: Salmonella typhimurium isolates; conditions: murium isolates
[3] = system: Escherichia coli isolates

CC(C)C[C@H](NC(=O)[C@H](Cc1ccc(O)cc1)NC(=O)[C@@H]1CCCN1C(=O)[C@H](CCCNC(=N)N)NC(=O)[C@@H]1CCCN1C(=O)[C@H](CCCCN)NC(=O)[C@H](CC(=O)O)NC(=O)[C@@H]1CCCN1C(=O)[C@H](CCCNC(=N)N)NC(=O)C1(N)CCCCC1)C(=O)N1CCC[C@H]1C(=O)N[C@@H](CCCNC(=N)N)C(=O)N1CCC[C@H]1C(=O)N[C@@H](CCCNC(=N)N)C(=O)N1CCC[C@H]1C(=O)N1CCC[C@H]1C(=O)N[C@@H](CCCNC(=N)N)C(=O)N1CCC[C@H]1C(=O)N[C@H](C(=O)N[C@@H](CCCNC(=N)N)C(=O)O)C(C)C [Chex1-Arg20, Chex-Arg-Pro-Asp-Lys-Pro-Arg-Pro-Tyr-Leu-Pro-Arg-Pro-Arg--Pro-Pro-Arg-Pro-Val-Arg] (H-[Ac6c]RPDKPRPYLPRPRPPRPVR-OH; N-terminus and C-terminus assumed)
peak height of the only degradation product (2321 M/z) relative to starting material [1]: about one third
minimal bactericidal concentrations (MBC) [2]: 4 µg/mL (≈ 1.62 µM)
minimal bactericidal concentrations (MBC) [3]: 2 to 32 µg/mL

— patent publication US8492515B2 (priority 2008, dated 2013)
